For 6 compounds, TGI results are on record in PubChem BioAssay (NCI).

SMILES strings stand for the structures.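 The compound was tested at five concentrations on cells cultured in 96-well plates, with a 48-hour exposure period. At the TGI there is no net growth.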

Holding throughout (test): NCI tumour cell line growth inhibition, 48 h
Assay [1] concerns OVCAR-8 ovarian.
Assay [2] concerns SNB-19 CNS.
In assay [3] the test system is MALME-3M melanoma.
In assay [4] the test system is LOX IMVI melanoma.
Assay [5] deals with ACHN renal.
In assay [6] the test system is TK-10 renal.
Assay [7] has as its system RPMI-8226 leukemia.
In assay [8] the test system is KM12 colon.
The test system of assay [9] is MCF7 breast.
Assay [10] has as its system MDA-MB-435.

Consider `C=C(C)[C@H]1CC23C(=O)[C@@](C)(C[C@H]2C1(C)C)C(=O)C(C(=O)C(C)C)=C3O`, for which the TGI came out at 40.2 µM in [1]; 69.7 µM in assay [2]; 28.6 µM in assay [3]; 38.9 µM in assay [4]; 30.4 µM in assay [5]; 53.3 µM in assay [6]. Moreover, the TGI in [7] amounted to 27.9 µM; in assay [8], 41.1 µM; in assay [9], 32.6 µM; in [10], 31.3 µM.
For `CC1=C(C(=O)OCCO[N+](=O)[O-])C(c2ccccc2[N+](=O)[O-])C(C(=O)OC(C)C)=C(C)N1` (stereo not given), the TGI in assay [1] turned out to be 63.7 µM; in assay [2], 39.6 µM; in assay [3], 35.9 µM; in [4], 32.3 µM; in assay [5] it was 87.6 µM; in assay [6], 58.4 µM. For the same compound, the TGI in assay [7] was above 100 µM; in assay [8] it was 28.1 µM; in assay [9] it was 44.9 µM; in assay [10] it was 28.5 µM.
Turning to `CN(C)/N=N/c1nc2c(c(=O)n(C)c(=O)n2C)n1CC1CO1` (stereo not given), the TGI in assay [1] worked out at 36.7 µM; in [2] it was 78.2 µM; in assay [3] it was 25.1 µM; in assay [4], 23.7 µM; in [5], 41.9 µM; in [6] it was 37.7 µM. Moreover, the TGI in assay [7] amounted to 93.1 µM; in [8], 50.7 µM; in [9] it was 26.1 µM; in [10] it was 35.6 µM.
For the compound `O=C(NC(C(F)(F)F)(C(F)(F)F)P(=O)(Cc1ccccc1)Cc1ccccc1)C(C(F)(F)F)C(F)(F)F`, the TGI amounted to 46.5 µM in assay [1]; 59.4 µM in assay [2]; 47.1 µM in [3]; 35.2 µM in assay [4]; 42.7 µM in assay [5]; 39.1 µM in [6]. In addition, the TGI in assay [7] was determined as 72 µM; in assay [8], 37.7 µM; in assay [9], 31.8 µM; in assay [10], 34.3 µM.
`CN(C)CCNCCCNc1c2ccccc2nc2cccc([N+](=O)[O-])c12`: the TGI in assay [1] was 0.0532 µM; in [2], 0.177 µM; in [3] it was 0.104 µM; in [4], below 0.0253 µM; in assay [5] it was 0.0312 µM; in assay [6], 0.176 µM. Further, the TGI was below 0.0226 µM in assay [7], 0.111 µM in [8], below 0.0268 µM in assay [9] and 0.0313 µM in [10].
Regarding `O=C(c1ccco1)N(C(=O)N1CCC(c2ccccc2)CC1)c1ccccc1`, the TGI in assay [1], in assay [2], in assay [3], in assay [4], in assay [5] and in [6] was above 100 µM each time. For the same compound, the TGI is 60 µM in [7], 85 µM in assay [8], above 100 µM in assay [9] and above 100 µM in [10].
